What was measured:
[1] = test system: Mycobacterium tuberculosis Erdman (autoluminescent); assay: FIC50 (Loewe) at 50% inhibition (log2); higher = more antagonistic
Procedure: (§1)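 DiaMOND equipotent two-drug combination dose responses against autoluminescent M. tuberculosis Erdman in 8 in vitro models. Read-out is OD600, or luminescence for the intracellular and dormancy models, normalised to untreated wells. Hill-fit Einf, AUC25 and GRinf are potency metrics; FIC50 and FIC90 are Loewe-additivity fractional inhibitory concentrations, given as log2 (negative = synergy). Replicates are averaged.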

[2] = test system: Mycobacterium tuberculosis Erdman (autoluminescent); assay: FIC90 (Loewe) at 90% inhibition (log2); higher = more antagonistic
Procedure: as §1

[3] = test system: Mycobacterium tuberculosis Erdman (autoluminescent); assay: AUC25, normalised area under dose response up to IC25 (fraction (0-1)); higher = more potent at low dose
Procedure: as §1

[4] = test system: Mycobacterium tuberculosis Erdman (autoluminescent); assay: Einf, fitted maximum growth inhibition of combination (fraction); higher = stronger maximal inhibition
Procedure: as §1

[5] = test system: Mycobacterium tuberculosis Erdman (autoluminescent); assay: GRinf, maximum normalised growth rate inhibition (unitless (-1 to 1)); higher = less effect (negative = killing)
Procedure: as §1

CC(=O)NC[C@H]1CN(c2ccc(N3CCOCC3)c(F)c2)C(=O)O1 [linezolid] + CO[C@H]1/C=C/O[C@@]2(C)Oc3c(C)c(O)c4c(O)c(c(/C=N/N5CCN(C)CC5)c(O)c4c3C2=O)NC(=O)/C(C)=C\C=C\[C@H](C)[C@H](O)[C@@H](C)[C@@H](O)[C@@H](C)[C@H](OC(C)=O)[C@@H]1C [rifampicin]
Settings | AUC25, [3] | Einf, [4] | FIC50, [1] | FIC90, [2] | GRinf, [5]
in vitro model: acidic pH 5.7, time point: constant (~7 days, model-specific) | 0.0878 | 0.902 | 0.204 | – | -0.289
in vitro model: acidic pH 5.7, time point: terminal (~4-5 doublings, model-specific) | 0.0656 | 0.983 | 0.31 | 0.0747 | -0.211
in vitro model: intracellular J774, time point: constant = terminal | – | 0.955 | – | -0.706 | -0.24

Settings | AUC25, [3] | Einf, [4] | FIC50, [1] | FIC90, [2] | GRinf, [5]
in vitro model: butyrate, time point: constant (~7 days, model-specific) | 0.078 | 0.87 | 0.117 | – | 0.146
in vitro model: butyrate, time point: terminal (~4-5 doublings, model-specific) | 0.0601 | 0.938 | -0.0786 | -0.707 | 0.11
in vitro model: cholesterol 0.05 mM, time point: constant (~7 days, model-specific) | 0.154 | 0.725 | -0.622 | – | -0.00382
in vitro model: cholesterol 0.05 mM, time point: terminal (~4-5 doublings, model-specific) | 0.13 | 0.935 | -0.194 | -0.403 | -0.175
in vitro model: cholesterol-high 0.2 mM, time point: constant (~7 days, model-specific) | 0.101 | 0.997 | -0.0412 | -0.846 | -0.295
in vitro model: cholesterol-high 0.2 mM, time point: terminal (~4-5 doublings, model-specific) | 0.0937 | 1 | 0.555 | -0.0135 | -0.687
in vitro model: dormancy (butyrate + nitrate, low O2), time point: constant (~7 days, model-specific) | 0.0704 | 0.905 | 0.505 | 0.314 | 0.177
in vitro model: dormancy (butyrate + nitrate, low O2), time point: terminal (~4-5 doublings, model-specific) | 0.0353 | 0.969 | 0.176 | 0.0537 | -0.0276
in vitro model: standard 7H9 glycerol, time point: constant = terminal | 0.0527 | 0.885 | 0.284 | – | 0.156
in vitro model: valerate, time point: constant (~7 days, model-specific) | 0.0582 | 0.865 | 0.191 | – | 0.0036
in vitro model: valerate, time point: terminal (~4-5 doublings, model-specific) | 0.0309 | 0.945 | 0.171 | -0.411 | 0.00264

CC(=O)NC[C@H]1CN(c2ccc(N3CCOCC3)c(F)c2)C(=O)O1 [linezolid] + COc1c(N2C[C@@H]3CCCN[C@@H]3C2)c(F)cc2c(=O)c(C(=O)O)cn(C3CC3)c12 [moxifloxacin]
Settings | AUC25, [3] | Einf, [4] | FIC50, [1] | FIC90, [2] | GRinf, [5]
in vitro model: acidic pH 5.7, time point: constant (~7 days, model-specific) | 0.144 | 0.799 | -0.0102 | – | -0.581
in vitro model: acidic pH 5.7, time point: terminal (~4-5 doublings, model-specific) | 0.102 | 0.963 | 0.872 | 0.52 | -0.271
in vitro model: intracellular J774, time point: constant = terminal | – | 0.909 | – | 0.463 | -0.14

Settings | AUC25, [3] | Einf, [4] | FIC50, [1] | FIC90, [2] | GRinf, [5]
in vitro model: butyrate, time point: constant (~7 days, model-specific) | 0.0878 | 0.885 | 0.397 | 1.22 | 0.0908
in vitro model: butyrate, time point: terminal (~4-5 doublings, model-specific) | 0.0618 | 0.939 | 0.323 | 0.392 | 0.0886
in vitro model: cholesterol 0.05 mM, time point: constant (~7 days, model-specific) | 0.124 | 0.679 | -0.444 | – | -0.0664
in vitro model: cholesterol 0.05 mM, time point: terminal (~4-5 doublings, model-specific) | 0.137 | 0.938 | 0.0528 | -0.309 | -0.215
in vitro model: cholesterol-high 0.2 mM, time point: constant (~7 days, model-specific) | 0.123 | 0.95 | -0.129 | 0.814 | -0.546
in vitro model: cholesterol-high 0.2 mM, time point: terminal (~4-5 doublings, model-specific) | 0.125 | 1 | -0.211 | 0.433 | -0.844
in vitro model: dormancy (butyrate + nitrate, low O2), time point: constant (~7 days, model-specific) | 0.0537 | 0.914 | 0.869 | 0.521 | 0.139
in vitro model: dormancy (butyrate + nitrate, low O2), time point: terminal (~4-5 doublings, model-specific) | 0.0589 | 0.964 | 0.671 | 0.922 | 0.061
in vitro model: standard 7H9 glycerol, time point: constant = terminal | 0.0831 | 0.955 | 0.52 | 0.972 | -0.197
in vitro model: valerate, time point: constant (~7 days, model-specific) | 0.11 | 0.856 | 0.339 | – | 0.0191
in vitro model: valerate, time point: terminal (~4-5 doublings, model-specific) | 0.0688 | 0.932 | 0.36 | 0.679 | 0.0477

CC(=O)NC[C@H]1CN(c2ccc(N3CCOCC3)c(F)c2)C(=O)O1 [linezolid] + NC(=O)c1cnccn1 [pyrazinamide]
Settings | AUC25, [3] | Einf, [4] | FIC50, [1] | FIC90, [2] | GRinf, [5]
in vitro model: acidic pH 5.7, time point: constant (~7 days, model-specific) | 0.0815 | 0.856 | 0.463 | – | -0.176
in vitro model: acidic pH 5.7, time point: terminal (~4-5 doublings, model-specific) | 0.0982 | 0.985 | 0.393 | -1.67 | -0.358
in vitro model: intracellular J774, time point: constant = terminal | – | 0.948 | – | 0.0529 | -0.235

Settings | AUC25, [3] | Einf, [4] | FIC50, [1] | FIC90, [2] | GRinf, [5]
in vitro model: butyrate, time point: constant (~7 days, model-specific) | 0.119 | 0.897 | -0.211 | 1.73 | 0.0498
in vitro model: butyrate, time point: terminal (~4-5 doublings, model-specific) | 0.0989 | 0.95 | -0.152 | 0.565 | 0.0146
in vitro model: cholesterol 0.05 mM, time point: constant (~7 days, model-specific) | 0.142 | 0.724 | – | – | -0.126
in vitro model: cholesterol 0.05 mM, time point: terminal (~4-5 doublings, model-specific) | 0.141 | 0.95 | 0.09 | – | -0.256
in vitro model: cholesterol-high 0.2 mM, time point: constant (~7 days, model-specific) | 0.114 | 0.957 | 0.0387 | – | -0.407
in vitro model: cholesterol-high 0.2 mM, time point: terminal (~4-5 doublings, model-specific) | 0.115 | 0.999 | 0.0483 | 0.383 | -0.83
in vitro model: dormancy (butyrate + nitrate, low O2), time point: constant (~7 days, model-specific) | 0.0601 | 0.878 | 0.507 | 0.733 | 0.236
in vitro model: dormancy (butyrate + nitrate, low O2), time point: terminal (~4-5 doublings, model-specific) | 0.0422 | 0.823 | 0.0853 | 1.09 | 0.182
in vitro model: standard 7H9 glycerol, time point: constant = terminal | 0.0807 | 0.939 | 0.336 | – | -0.0617
in vitro model: valerate, time point: constant (~7 days, model-specific) | 0.0877 | 0.798 | -0.432 | – | 0.131
in vitro model: valerate, time point: terminal (~4-5 doublings, model-specific) | 0.0556 | 0.892 | -0.271 | 1.25 | 0.137
